# Key:
# Streptococcus mutans = test: Minimal inhibitory concentration (MIC) by broth dilution and checkerboard titration of combinations; format: cell-based
# Protocol: (§1) The minimal inhibitory concentration (MIC) of the test compound is the minimum concentration of compound required to inhibit growth of the test microorganism. The MIC is determined by serially diluting the test solution through tubes of sterile broth. The tubes are inoculated and incubated at 37°C for 48 hours. At the end of the incubation time, growth is checked macroscopically. The lowest concentration of test compound to inhibit growth is the MIC. This technique is used to assess antimicrobial activity of combinations. The checkerboard is the pattern found by multiple combinations of two agents in concentrations equal to, above and below their minimal inhibitory concentration for the microorganism tested against. The checkerboard consists of columns which contain the same amount of one agent which is diluted along the x-axis and rows which each contain the same amount of the second agent diluted along the y-axis. Thus each tube is a unique combination of the two agents. […] A method for illustrating the effect of the combination of the two agents is obtained by plotting the MIC's of each agent alone and the MIC's for these agents in combination. Antimicrobial synergy is indicated if the MIC's for the agents in combination are lower than the MIC's for the agents alone.
# [1] = test system: Bacteroides melaninogenicus; test: as above; format: cell-based
# Protocol: as §1
# [2] = S. mutans, agent alone (other agent 0), Table XI, comparative
# [3] = B. melaninogenicus, agent alone (other agent 0), Table XI, comparative
# [4] = S. mutans, agent alone (other agent 0), second table of Example XI, comparative
# [5] = B. melaninogenicus, agent alone (other agent 0), second table of Example XI, comparative
# [6] = S. mutans, agent alone (other agent 0), Table IX
# [7] = S. mutans, agent alone (other agent 0), Table VII
# [8] = S. mutans, agent alone (other agent 0), Table X
# [9] = B. melaninogenicus, agent alone (other agent 0), Table IX
# [10] = B. melaninogenicus, agent alone (other agent 0), Table VII
# [11] = B. melaninogenicus, agent alone (other agent 0), Table X
structure (smiles),measurement,setting,value
"CCCCCc1ccc(C)cc1O [amyl-m-cresol, reference compound]",Minimum Inhibitory Concentration,Streptococcus mutans; [2],10 milligrams/liter
same,Minimum Inhibitory Concentration,"Streptococcus mutans; S. mutans, in combination with 50 milligrams/liter morpholinoamino alcohol HCl, Table XI",10 milligrams/liter
same,Minimum Inhibitory Concentration,"Streptococcus mutans; S. mutans, in combination with 100 milligrams/liter morpholinoamino alcohol HCl, Table XI",10 milligrams/liter
same,Minimum Inhibitory Concentration,[1]; [3],10 milligrams/liter
same,Minimum Inhibitory Concentration,"[1]; B. melaninogenicus, in combination with 50 milligrams/liter morpholinoamino alcohol HCl, Table XI",10 milligrams/liter
same,Minimum Inhibitory Concentration,"[1]; B. melaninogenicus, in combination with 100 milligrams/liter morpholinoamino alcohol HCl, Table XI",2.5 milligrams/liter
"OCc1ccc(Cl)cc1Cl [2,4-dichloro-alcohol, 2,4-dichlorobenzyl alcohol, reference compound]",Minimum Inhibitory Concentration,Streptococcus mutans; [4],50 milligrams/liter
same,Minimum Inhibitory Concentration,"Streptococcus mutans; S. mutans, in combination with 50 milligrams/liter morpholinoamino alcohol HCl, the 12th table",50 milligrams/liter
same,Minimum Inhibitory Concentration,"Streptococcus mutans; S. mutans, in combination with 100 milligrams/liter morpholinoamino alcohol HCl, the 12th table",50 milligrams/liter
same,Minimum Inhibitory Concentration,[1]; [5],100 milligrams/liter
same,Minimum Inhibitory Concentration,"[1]; B. melaninogenicus, in combination with 50 milligrams/liter morpholinoamino alcohol HCl, the 12th table",100 milligrams/liter
same,Minimum Inhibitory Concentration,"[1]; B. melaninogenicus, in combination with 100 milligrams/liter morpholinoamino alcohol HCl, the 12th table",100 milligrams/liter
CCCC(CCC)CCCC1COCCN1CCO.Cl (stereo not drawn) [3-(4-propylheptyl)-4-(2-hydroxyethyl) morpholine hydrochloride],Minimum Inhibitory Concentration,"Streptococcus mutans; S. mutans (ATCC 2517S), agent alone (other agent 0), Table VIII",200 milligrams/liter
same,Minimum Inhibitory Concentration,Streptococcus mutans; [6],200 milligrams/liter
same,Minimum Inhibitory Concentration,Streptococcus mutans; [7],200 miligrams/liter
same,Minimum Inhibitory Concentration,Streptococcus mutans; [8],200 milligrams/liter
same,Minimum Inhibitory Concentration,Streptococcus mutans; [2],200 milligrams/liter
same,Minimum Inhibitory Concentration,Streptococcus mutans; [4],200 milligrams/liter
same,Minimum Inhibitory Concentration,"Streptococcus mutans; S. mutans, in combination with 0.25 milligrams/liter hexitidine (row with 50 morpholinoamino alcohol HCl)",50 milligrams/liter
same,Minimum Inhibitory Concentration,"Streptococcus mutans; S. mutans, in combination with 0.25 milligrams/liter hexitidine (row with 100 morpholinoamino alcohol HCl)",100 milligrams/liter
same,Minimum Inhibitory Concentration,"Streptococcus mutans; S. mutans, in combination with 0.5 milligrams/liter domiphen bromide",100 milligrams/liter
same,Minimum Inhibitory Concentration,"Streptococcus mutans; S. mutans, in combination with 1.0 milligrams/liter domiphen bromide",50 milligrams/liter
same,Minimum Inhibitory Concentration,"Streptococcus mutans; S. mutans, in combination with 2 miligrams/liter 1-0-dodecyl-rac-glycerol",100 miligrams/liter
same,Minimum Inhibitory Concentration,"Streptococcus mutans; S. mutans, in combination with 6 miligrams/liter 1-0-dodecyl-rac-glycerol",4 miligrams/liter
same,Minimum Inhibitory Concentration,"Streptococcus mutans; S. mutans, in combination with 10 milligrams/liter amyl-m-cresol (row with 50 morpholinoamino alcohol HCl)",50 milligrams/liter
same,Minimum Inhibitory Concentration,"Streptococcus mutans; S. mutans, in combination with 10 milligrams/liter amyl-m-cresol (row with 100 morpholinoamino alcohol HCl)",100 milligrams/liter
same,Minimum Inhibitory Concentration,"Streptococcus mutans; S. mutans, in combination with 50 milligrams/liter 2, 4-dichloro-alcohol (row with 50 morpholinoamino alcohol HCl)",50 milligrams/liter
same,Minimum Inhibitory Concentration,"Streptococcus mutans; S. mutans, in combination with 50 milligrams/liter 2, 4-dichloro-alcohol (row with 100 morpholinoamino alcohol HCl)",100 milligrams/liter
same,Minimum Inhibitory Concentration,"Streptococcus mutans; S. mutans, in the absence of the dodecyl glycerol",200 milligrams per liter
same,Minimum Inhibitory Concentration,"[1]; B. melaninogenicus (J18M2), agent alone (other agent 0), Table VIII",200 milligrams/liter
same,Minimum Inhibitory Concentration,"[1]; B. melaninogenicus (J18M2), in combination with 0.003 milligrams/liter cetyl pyridinium chloride",100 milligrams/liter
same,Minimum Inhibitory Concentration,"[1]; B. melaninogenicus (J18M2), in combination with 0.006 milligrams/liter cetyl pyridinium chloride",50 milligrams/liter
same,Minimum Inhibitory Concentration,[1]; [9],200 milligrams/liter
same,Minimum Inhibitory Concentration,[1]; [10],200 miligrams/liter
same,Minimum Inhibitory Concentration,[1]; [11],200 milligrams/liter
same,Minimum Inhibitory Concentration,[1]; [3],200 milligrams/liter
same,Minimum Inhibitory Concentration,[1]; [5],200 milligrams/liter
same,Minimum Inhibitory Concentration,"[1]; B. melaninogenicus, in combination with 0.125 milligrams/liter hexitidine",100 milligrams/liter
same,Minimum Inhibitory Concentration,"[1]; B. melaninogenicus, in combination with 0.25 milligrams/liter hexitidine",50 milligrams/liter
same,Minimum Inhibitory Concentration,"[1]; B. melaninogenicus, in combination with 2 miligrams/liter 1-0-dodecyl-rac-glycerol",20 miligrams/liter
same,Minimum Inhibitory Concentration,"[1]; B. melaninogenicus, in combination with 2.5 milligrams/liter amyl-m-cresol",100 milligrams/liter
same,Minimum Inhibitory Concentration,"[1]; B. melaninogenicus, in combination with 6 miligrams/liter 1-0-dodecyl-rac-glycerol",4 miligrams/liter
same,Minimum Inhibitory Concentration,"[1]; B. melaninogenicus, in combination with 6.25 milligrams/liter domiphen bromide",100 milligrams/liter
same,Minimum Inhibitory Concentration,"[1]; B. melaninogenicus, in combination with 10 milligrams/liter amyl-m-cresol",50 milligrams/liter
same,Minimum Inhibitory Concentration,"[1]; B. melaninogenicus, in combination with 12.5 milligrams/liter domiphen bromide",50 milligrams/liter
same,Minimum Inhibitory Concentration,"[1]; B. melaninogenicus, in combination with 100 milligrams/liter 2, 4-dichloro-alcohol (row with 50 morpholinoamino alcohol HCl)",50 milligrams/liter
same,Minimum Inhibitory Concentration,"[1]; B. melaninogenicus, in combination with 100 milligrams/liter 2, 4-dichloro-alcohol (row with 100 morpholinoamino alcohol HCl)",100 milligrams/liter
same,Minimum Inhibitory Concentration,"[1]; B. melaninogenicus, in the absence of the dodecyl glycerol",200 milligrams per liter
"CCCCCCCCCCCC[N+](C)(C)CCOc1ccccc1 [domiphen bromide, reference compound]",Minimum Inhibitory Concentration,Streptococcus mutans; [6],1.0 milligrams/liter
same,Minimum Inhibitory Concentration,"Streptococcus mutans; S. mutans, in combination with 50 milligrams/liter morpholinoamino alcohol HCl, Table IX",1.0 milligrams/liter
same,Minimum Inhibitory Concentration,"Streptococcus mutans; S. mutans, in combination with 100 milligrams/liter morpholinoamino alcohol HCl, Table IX",0.5 milligrams/liter
same,Minimum Inhibitory Concentration,[1]; [9],50 milligrams/liter
same,Minimum Inhibitory Concentration,"[1]; B. melaninogenicus, in combination with 50 milligrams/liter morpholinoamino alcohol HCl, Table IX",12.5 milligrams/liter
same,Minimum Inhibitory Concentration,"[1]; B. melaninogenicus, in combination with 100 milligrams/liter morpholinoamino alcohol HCl, Table IX",6.25 milligrams/liter
"CCCCC(CC)CN1CN(CC(CC)CCCC)CC(C)(N)C1 (stereo not drawn) [hexitidine, hexetidine, reference compound]",Minimum Inhibitory Concentration,Streptococcus mutans; [8],1.0 milligrams/liter
same,Minimum Inhibitory Concentration,"Streptococcus mutans; S. mutans, in combination with 50 milligrams/liter morpholinoamino alcohol HCl, Table X",0.25 milligrams/liter
same,Minimum Inhibitory Concentration,"Streptococcus mutans; S. mutans, in combination with 100 milligrams/liter morpholinoamino alcohol HCl, Table X",0.25 milligrams/liter
same,Minimum Inhibitory Concentration,[1]; [11],1.0 milligrams/liter
same,Minimum Inhibitory Concentration,"[1]; B. melaninogenicus, in combination with 50 milligrams/liter morpholinoamino alcohol HCl, Table X",0.25 milligrams/liter
same,Minimum Inhibitory Concentration,"[1]; B. melaninogenicus, in combination with 100 milligrams/liter morpholinoamino alcohol HCl, Table X",0.125 milligrams/liter
"CCCCCCCCCCCCOCC(O)CO (racemic) [1-0-dodecyl-rac-glycerol, reference compound]",Minimum Inhibitory Concentration,Streptococcus mutans; [7],10 miligrams/liter
same,Minimum Inhibitory Concentration,"Streptococcus mutans; S. mutans, in combination with 4 miligrams/liter morpholinoamino alcohol HCl",6 miligrams/liter
same,Minimum Inhibitory Concentration,"Streptococcus mutans; S. mutans, in combination with 100 miligrams/liter morpholinoamino alcohol HCl",2 miligrams/liter
same,Minimum Inhibitory Concentration,[1]; [10],10 miligrams/liter
same,Minimum Inhibitory Concentration,"[1]; B. melaninogenicus, in combination with 4 miligrams/liter morpholinoamino alcohol HCl",6 miligrams/liter
same,Minimum Inhibitory Concentration,"[1]; B. melaninogenicus, in combination with 20 miligrams/liter morpholinoamino alcohol HCl",2 miligrams/liter

# Source: patent EP0510151B1, “IMPROVED ANTI-PLAQUE COMPOSITIONS COMPRISING A COMBINATION OF MORPHOLINOAMINO ALCOHOL AND ANTI-MICROBIAL AGENT” (Pharmacia AB, priority 1990, dated 1992)
